Assay results from patent US20120196899A1, “METHODS AND PRODUCTS FOR TREATING INFLAMMATION” (Rock Creek Pharmaceuticals, Inc., priority 2010, published 2012).
“And” between values parts separate entries of the source, which are not always exact repeats. Equal values may be shown once. Read-outs that look alike come from different tables or passages of the source.

Experiment: Plasma pharmacokinetics after oral multi-dose anatabine polacrilex
Assay type: in vivo, Sprague-Dawley rats
Details: for Cp,max(1): after dose 1, mean; for Cp,max(3): after dose 3, mean; for Cp,max(2): after dose 2, mean; for AUC(0-inf) / concentration at 270 min / concentration at 300 min / concentration at 475 min / concentration at 540 min / concentration at 600 min / concentration at 720 min / concentration at 30 min / concentration at 60 min / concentration at 235 min / half-life: Sprague-Dawley, rat, plasma; for AUC(0-inf) / half-life: po; for concentration at 270 min / concentration at 300 min / concentration at 475 min / concentration at 540 min / concentration at 600 min / concentration at 720 min / concentration at 30 min / concentration at 60 min / concentration at 235 min: oral, Avg. Conc. of anatabine in plasma, Male and Female
Experimental: This study consisted of two groups of 8 animals each, 4 males and 4 females.
Two formulations were prepared; one for each of the two treatment groups. The test compound was formulated for each treatment group just prior to the first dose administration and constantly stirred until dosing was completed (Table 37). Four aliquots of each dose level formulation were collected and stored at −80° C.
The animals were weighed prior to dosing and received three doses p.o. of test compound at a volume of 5 mL/kg. Blood was collected via the venus plexus (retro-orbital) into tubes containing (K2) EDTA. No more than 0.5 mL was collected per time point.
Plasma was separated as per package instructions for MICROTAINER® brand collection tubes (3 minutes, 2000×g). Plasma was decanted into microfuge tubes and stored at −80° C. Remaining test compound was placed at −80° C.
Sample preparation. Plasma samples were treated with three volumes of methanol containing internal standard at 1 μM (R,S)-Antabine-2,4,5,6-d4), incubated 10 min at 4° C., and centrifuged. The amount of the test agent in the supernatant was determined by LC/MS/MS.
Analysis. Samples were analyzed by LC/MS/MS using an Agilent 6410 mass spectrometer coupled with an Agilent 1200 high pressure liquid chromatography (HPLC) and a CTC PAL chilled autosampler, all controlled by MassHunter software (Agilent). After separation on a Hydrophilic interaction liquid chromatography (HILIC) HPLC column (Sepax) using an acetonitrile-ammonium acetate/acetic acid gradient system, peaks were analyzed by mass spectrometry (MS) using ESI ionization in multiple reaction monitoring (MRM) mode. MassHunter software was used to calculate the concentration of the test compounds in samples from the peak area using the appropriate calibration curves.
Calibration samples. Calibration curves were determined in rat plasma. Calibration samples were prepared by diluting a 50× stock solution of the test compound in PBS with blank matrix to the appropriate concentration and these samples were prepared as described above in the sample preparation.
Data Analysis. Descriptive statistics were calculated for all pharmacokinetic parameters. Elimination half-lives (t1/2) were calculated by linear regression of logarithmically transformed plasma concentration data for each period between doses and following the final dose.
Total areas under the plasma concentration curves (AUC) and under the first moment curves (AUMC) were calculated using linear trapezoidal summation across all concentration time points as well as for intervals between each dose administration and following the final dose. […] Mean absorption times (MAT) were calculated according to the following relation: […]
where MRT represents the mean residence time. This was calculated from the mean residence times.
The statistical comparison of parameters between male and female animals was made using a two-tailed, unpaired, t-test with a 95 percent confidence interval. Repeated-measures analysis of variance (ANOVA) was used for multiple comparisons of Cp, max involving successive determinations on the same group of animals.

[1] = 0.6 mg/kg, male and female combined, mean
[2] = 6.0 mg/kg, male and female combined, mean
[3] = all data combined (overall), mean
[4] = both dose levels and genders combined, anatabine polacrilex p.o.
[5] = both treatment groups combined, female rats, mean
[6] = both treatment groups combined, male rats, mean

## C1=CCC(c2cccnc2)NC1 (racemic) [Anatabine, 1,2,3,6-tetrahydro-[2,3′]bipyridinyl]
0.6 mg/kg BW group, first value of male versus female comparison
  Cp,min(2): 15.3 ± 5.5 ng/mL
0.6 mg/kg BW group, second value of male versus female comparison
  Cp,min(2): 7.5 ± 1.7 ng/mL
0.6 mg/kg, female rats
  Cp,max(1): 38.3 ng/mL
0.6 mg/kg, female rats, mean
  Cp,min(1): 10.3 ng/mL
  Cp,min(2): 7.5 ng/mL
  MAT0→4 (mean absorption time): 0.53 h
  MTT0→4 (mean transit time): 2.98 h
  AUC(0-inf): 290 ng·h/mL
[1]
  AUC0→∞: 285 ng·h/mL
  MAT0→4: 0.61 h
  MTT0→4: 3.06 h
0.6 mg/kg, male rats
  Cp,max(1): 34.3 ng/mL
  Cp,max(3): 37.3 ng/mL
0.6 mg/kg, male rats, mean
  Cp,min(1): 11.0 ng/mL
  Cp,min(2): 15.3 ng/mL
  MAT0→4 (mean absorption time): 0.71 h
  MTT0→4 (mean transit time): 3.17 h
  AUC(0-inf): 280 ng·h/mL
6.0 mg/kg BW group, first value of male versus female comparison
  Cp,min(2): 93 ± 16 ng/mL
6.0 mg/kg, female rats
  Cp,max(1): 260 ng/mL and 259.8 ng/mL
  Cp,max(2): 312 ng/mL and 312.0 ng/mL
  Cp,max(3): 375 ng/mL and 374.8 ng/mL
6.0 mg/kg, female rats, mean
  Cp,min(1): 52 ng/mL and 51.5 ng/mL
  Cp,min(2): 180 ng/mL and 180.0 ng/mL
  MAT0→4 (mean absorption time): 0.30 h
  MTT0→4 (mean transit time): 2.76 h
  AUC(0-inf): 3740 ng·h/mL
[2]
  AUC0→∞: 3496 ng·h/mL
  MAT0→4: 0.52 h
  MTT0→4: 2.97 h
6.0 mg/kg, male rats
  Cp,max(1): 287 ng/mL
  Cp,max(2): 305 ng/mL
6.0 mg/kg, male rats, mean
  Cp,min(1): 75 ng/mL
  Cp,min(2): 93 ng/mL
  MAT0→4 (mean absorption time): 0.73 h
  MTT0→4 (mean transit time): 3.18 h
  AUC(0-inf): 3260 ng·h/mL
[3]
  MAT0→4: 0.56 h
  MTT0→4: 3.01 h
[4]
  mean absorption time (MAT0→4): 0.56 ± 1.25 h
  mean transit time (MTT0→4): 3.01 ± 1.25 h
Both sexes, 0.2 mg/kg BW, dose group 0.2, combined male and female, 270 min
  concentration at 270 min: 26 ng/mL
Both sexes, 0.2 mg/kg BW, dose group 0.2, combined male and female, 300 min
  concentration at 300 min: 27 ng/mL
Both sexes, 0.2 mg/kg BW, dose group 0.2, combined male and female, 475 min
  concentration at 475 min: 11 ng/mL
Both sexes, 0.2 mg/kg BW, dose group 0.2, combined male and female, 540 min
  concentration at 540 min: 30 ng/mL
Both sexes, 0.2 mg/kg BW, dose group 0.2, combined male and female, 600 min
  concentration at 600 min: 26 ng/mL
Both sexes, 0.2 mg/kg BW, dose group 0.2, combined male and female, 720 min
  concentration at 720 min: 13 ng/mL
Both sexes, 0.2 mg/kg, dose group 0.2, combined male and female, 30 min
  concentration at 30 min: 36 ng/mL
Both sexes, 0.2 mg/kg, dose group 0.2, combined male and female, 60 min
  concentration at 60 min: 31 ng/mL
Both sexes, 0.2 mg/kg, dose group 0.2, combined male and female, 235 min
  concentration at 235 min: 10 ng/mL
Both sexes, 2 mg/kg BW, dose group 2, combined male and female, 30 min
  concentration at 30 min: 201 ng/mL
Both sexes, 2 mg/kg BW, dose group 2, combined male and female, 60 min
  concentration at 60 min: 139 ng/mL
Both sexes, 2 mg/kg BW, dose group 2, combined male and female, 235 min
  concentration at 235 min: 63 ng/mL
Both sexes, 2 mg/kg BW, dose group 2, combined male and female, 270 min
  concentration at 270 min: 278 ng/mL
Both sexes, 2 mg/kg BW, dose group 2, combined male and female, 300 min
  concentration at 300 min: 222 ng/mL
Both sexes, 2 mg/kg BW, dose group 2, combined male and female, 475 min
  concentration at 475 min: 136 ng/mL
Both sexes, 2 mg/kg BW, dose group 2, combined male and female, 540 min
  concentration at 540 min: 286 ng/mL
Both sexes, 2 mg/kg BW, dose group 2, combined male and female, 600 min
  concentration at 600 min: 237 ng/mL
Both sexes, 2 mg/kg BW, dose group 2, combined male and female, 720 min
  concentration at 720 min: 194 ng/mL
Both sexes, 0.6 mg/kg, 0.6 mg/kg BW total p.o., after final dose, males and females combined, read-out: t1/2, terminal (converted)
  half-life: 1.79 ± 0.64 h
Both sexes, 0.6 mg/kg, male and female combined, mean, read-out: t1/2,0→4 (converted)
  half-life: 2.05 h
Both sexes, 0.6 mg/kg, male and female combined, mean, read-out: t1/2,terminal (converted)
  half-life: 1.79 h
Both sexes, 6 mg/kg, 6.0 mg/kg BW total p.o., after final dose, males and females combined, read-out: t1/2, terminal (converted)
  half-life: 4.53 ± 1.77 h
Both sexes, 6 mg/kg, male and female combined, mean, read-out: t1/2,0→4 (converted)
  half-life: 1.79 h
Both sexes, 6 mg/kg, male and female combined, mean, read-out: t1/2,terminal (converted)
  half-life: 4.53 h
Both sexes, all data combined (overall), mean, read-out: t1/2,0→4 (converted)
  half-life: 1.93 h
Both sexes, both dose levels and genders combined, anatabine polacrilex p.o., read-out: elimination half-life following the first oral dose (t1/2, 0→4) (converted)
  half-life: 1.93 ± 0.73 h
Both sexes, 0.6 mg/kg BW total p.o., males and females combined
  AUC(0-inf): 285 ± 77 ng·h/mL
Both sexes, 6.0 mg/kg BW total p.o., males and females combined
  AUC(0-inf): 3500 ± 559 ng·h/mL
[5]
  MAT0→4: 0.42 h
  MTT0→4: 2.87 h
[6]
  MAT0→4: 0.72 h
  MTT0→4: 3.18 h
Dose 0.2 mg/kg, female, […], individual animals 2A-2D
  Anatabine Concentration in rat plasma: <LOQ
Dose 0.2 mg/kg, male, 30 min, individual animals 1A-1D
  Anatabine Concentration in rat plasma: <LOQ
Dose 0.2 mg/kg, male, 60 min, individual animals 1A-1D
  Anatabine Concentration in rat plasma: 34 ng/mL
Dose 0.2 mg/kg, male, 235 min, individual animals 1A-1D
  Anatabine Concentration in rat plasma: <LOQ and 13 ng/mL
Dose 0.2 mg/kg, male, 270 min, individual animals 1A-1D
  Anatabine Concentration in rat plasma: 31 ng/mL and 20 ng/mL
Dose 0.2 mg/kg, male, 300 min, individual animals 1A-1D
  Anatabine Concentration in rat plasma: 26 ng/mL and 29 ng/mL
Dose 0.2 mg/kg, male, 475 min, individual animals 1A-1D
  Anatabine Concentration in rat plasma: 9 ng/mL and <LOQ and 18 ng/mL
Dose 0.2 mg/kg, male, 540 min, individual animals 1A-1D
  Anatabine Concentration in rat plasma: 4 ng/mL and 28 ng/mL and 41 ng/mL
Dose 0.2 mg/kg, male, 600 min, individual animals 1A-1D
  Anatabine Concentration in rat plasma: <LOQ and 17 ng/mL and 35 ng/mL
Dose 0.2 mg/kg, male, 720 min, individual animals 1A-1D
  Anatabine Concentration in rat plasma: <LOQ and 5 ng/mL and 12 ng/mL
Dose 0.2 mg/kg, male, […], individual animals 1A-1D
  Anatabine Concentration in rat plasma: <LOQ
Dose 2 mg/kg, female, 30 min, individual animals 4A-4D
  Anatabine Concentration in rat plasma: 78 ng/mL and 218 ng/mL and 98 ng/mL
Dose 2 mg/kg, female, 60 min, individual animals 4A-4D
  Anatabine Concentration in rat plasma: 81 ng/mL and 95 ng/mL and 165 ng/mL
Dose 2 mg/kg, female, 235 min, individual animals 4A-4D
  Anatabine Concentration in rat plasma: 75 ng/mL and 36 ng/mL and 23 ng/mL and 72 ng/mL
